According to patent publication US8026240B2, “Octahydro-pyrrolo[3,4-b]pyrrole N-oxides” (Abbott Laboratories, priority 2007, dated 2011):

Biological target: T1, rat histamine-3 receptor (Rattus norvegicus, UniProt Q9QYN8)
T1 construct: expressed in transfected cells; host or cells: C6 or HEK293 cells
Assay: histamine-3 receptor competition binding with [H3]-N-α-methylhistamine
Method: To determine the effectiveness of representative compounds of this invention as histamine-3 receptor ligands, the following tests were conducted according to previously described methods (see Arrang et al, “Histamine H3 Receptor Binding Sites in Rat Brain Membranes:Modulations by Guanine Nucleotides and Divalent Cations”, European Journal of Pharmacology, Vol. 188, pp. 219-227 (1990); Tedford et al., “Pharmacological Characterization of GT-2016, A Non-Thiourea-Containing Histamine H3 Receptor Antagonist: In Vitro and In Vivo Studies”, The Journal of Pharmacology and Experimental Therapeutics, Vol. 275, pp. 598-604 (1995); Leurs et al., “Histamine Homologues Discriminating Between Two Functional H3-Receptor Assays. Evidence for H3 Receptor”, Journal of Pharmacology and Experimental Therapeutics, Vol. 276, No. 3, pp. 1009-1015 (1996); and Cheng et al., “Relationship Between the Inhibition Constant (K1) and the Concentration of Inhibitor which Causes 50% Inhibition (150) of an Enzymatic Reaction”, Biochemical Pharmacology, Vol. 22., pp. 3099-3108 (1973)).
The rat histamine-3 receptor was cloned and expressed in cells, and competition binding assays carried out, according to methods previously described (see Esbenshade et al., “Pharmacological Properties of ABT-239 [4-(2-{2-[(2R)-2-Methylpyrrolidinyl ]ethyl}-benzofuran-5-yl)benzonitrile]: I. Potent and Selective Histamine H3 Receptor Antagonist with Drug-Like Properties”, Journal of Pharmacology and Experimental Therapeutics, Vol. 313, pp. 165-175, (2005); Esbenshade et al., “Pharmacological and Behavioral Properties of A-349821, a Selective and Potent Human Histamine H3 Receptor Antagonist”, Biochemical Pharmacology, Vol 68, pp. 933-945 (2004); Krueger et al., “G Protein-Dependent Pharmacology of Histamine H3 Receptor Ligands: Evidence for Heterogeneous Active State Receptor Conformations”, Journal of Pharmacology and Experimental Therapeutics, Vol. 314, pp. 271-281 (2005)). Membranes were prepared from C6 or HEK293 cells, expressing the rat histamine-3 receptor, by homogenization on ice in TE buffer (50 mM Tris-HCl buffer, pH 7.4, containing 5 mM EDTA), 1 mM benzamidine, 2 μg/ml aprotinin, 1 μg/ml leupeptin, and 1 μg/ml pepstatin. The homogenate was centrifuged at 40,000 g for 20 minutes at 4° C. […]
Membrane preparations were incubated with [H3]-N-α-methylhistamine (0.5-1.0 nM) in the presence or absence of increasing concentrations of ligands of formula (I) and formula (II) for histamine-3 receptor competition binding. […] Bound radiolabel was determined by liquid scintillation counting. For all of the radioligand competition binding assays, IC50 values and Hill slopes were determined by Hill transformation of the data and pKi values were determined by the Cheng-Prusoff equation.

[1] = compounds of formula (I), mean of 4 separate determinations

T1 sequence (Q9QYN8 whole entry): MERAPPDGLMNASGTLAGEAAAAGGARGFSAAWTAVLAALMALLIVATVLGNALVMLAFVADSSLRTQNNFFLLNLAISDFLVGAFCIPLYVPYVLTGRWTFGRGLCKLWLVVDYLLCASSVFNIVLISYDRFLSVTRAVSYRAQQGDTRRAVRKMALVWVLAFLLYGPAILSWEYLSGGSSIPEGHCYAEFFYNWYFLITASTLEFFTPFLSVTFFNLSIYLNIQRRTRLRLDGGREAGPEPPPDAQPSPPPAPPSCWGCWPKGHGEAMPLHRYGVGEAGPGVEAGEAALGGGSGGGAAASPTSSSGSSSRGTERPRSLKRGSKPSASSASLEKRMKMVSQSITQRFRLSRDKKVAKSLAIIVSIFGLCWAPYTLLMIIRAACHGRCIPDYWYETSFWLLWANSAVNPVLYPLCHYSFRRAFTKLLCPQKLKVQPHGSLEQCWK

| Structure (SMILES) | Ki [1] | Ki (compounds of formula (II)) |
| --- | --- | --- |
| C[N@+]1([O-])C[C@H]2CCN(c3ccc(-c4ccc(-n5ncccc5=O)cc4)cc3)[C@H]2C1 (single isomer, unassigned) | 2240 nM |  |
| CN1C[C@H]2CCN(c3ccc(-c4ccc(-n5ncccc5=O)nc4)cc3)[C@H]2C1 [2-(5-{4-[(3aR,6aR)-5-methylhexahydropyrrolo[3,4-b]pyrrol-1(2H)-yl]phenyl}pyridin-2-yl) pyridazin-3(2H)-one] |  | 3.5 nM |
| C[N@@+]1([O-])C[C@H]2CCN(c3ccc(-c4ccc(-n5ncccc5=O)cc4)cc3)[C@H]2C1 (single isomer, unassigned) | > 5000 nM |  |
| CN1C[C@H]2CCN(c3ccc(-c4ccc(-n5ncccc5=O)cc4)cc3)[C@H]2C1 [2-{4′-[(3aR,6aR)-5-methylhexahydropyrrolo[3,4-b]pyrrol-1(2H)-yl]-1,1′-biphenyl-4-yl}pyridazin-3(2H)-one] |  | 8.2 nM |
